Experimental data as given in PubChem BioAssay (NCI).
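96-well plates; 48 h exposure; 5 concentrations. Endpoints by linear interpolation between flanking doses. Not reached: highest tested concentration assigned. GI50 is the concentration that inhibits growth by half. Definition used: TGI = concentration required for complete inhibition of growth.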

Experiments:
Test in all cases: growth of human tumour cells (NCI), 48 h
COLO 205 colon = tested on: COLO 205 colon
HOP-92 NSCLC = tested on: HOP-92 NSCLC
K-562 leukemia = tested on: K-562 leukemia
OVCAR-5 ovarian = tested on: OVCAR-5 ovarian
RXF 393 renal = tested on: RXF 393 renal
SF-268 CNS = tested on: SF-268 CNS
SF-539 CNS = tested on: SF-539 CNS
SK-MEL-5 melanoma = tested on: SK-MEL-5 melanoma
SNB-19 CNS = tested on: SNB-19 CNS
HS 578T breast = tested on: HS 578T breast

SMILES | TGI (COLO 205 colon) [µM] | TGI (HOP-92 NSCLC) [µM] | TGI (K-562 leukemia) [µM] | TGI (OVCAR-5 ovarian) [µM] | TGI (RXF 393 renal) [µM] | TGI (SF-268 CNS) [µM] | TGI (SF-539 CNS) [µM] | TGI (SK-MEL-5 melanoma) [µM] | TGI (SNB-19 CNS) [µM] | TGI (HS 578T breast) [µM] | GI50 (COLO 205 colon) [µM] | GI50 (HOP-92 NSCLC) [µM] | GI50 (HS 578T breast) [µM] | GI50 (K-562 leukemia) [µM] | GI50 (OVCAR-5 ovarian) [µM] | GI50 (SF-268 CNS) [µM] | GI50 (SF-539 CNS) [µM] | GI50 (SK-MEL-5 melanoma) [µM] | GI50 (SNB-19 CNS) [µM] | GI50 (RXF 393 renal) [µM]
C/C=C/C(=O)Oc1cccc2cccnc12 | 35.9 | 57.9 | > 100 | > 100 | 41.1 | 14.5 | 40.1 | 51 | > 100 |  |  |  |  |  |  |  |  |  |  | 
COc1cc(OCc2ccccc2)c2c(CCC(=O)O)cc(=O)oc2c1 (tested in a mixture with another compound) | > 100 | > 100 | > 100 | > 100 |  | > 100 | > 100 | > 100 | > 100 | > 100 |  |  |  |  |  |  |  |  |  | 
Cc1cccc(NC(=O)C(=O)C(C2OC(=O)c3ccccc32)[N+](=O)[O-])c1C (configuration not stated) | 29.1 |  | 39.7 | 33.3 | 20.7 | 24.7 | 34.9 | 19.2 | 35.1 |  |  |  |  |  |  |  |  |  |  | 
O=C(/C=C/c1ccc(Cl)c(Cl)c1)c1ccccc1Cl | 30.6 | 31.7 | 19.4 | 30.4 | 31.6 | 13.9 | 12.2 | 26.7 | 25.1 |  |  |  |  |  |  |  |  |  |  | 
C[P+]1(Cc2ccccc2)CCCC1 | > 100 |  | > 100 | > 100 | > 100 |  | > 100 | > 100 | > 100 |  |  |  |  |  |  |  |  |  |  | 
O=C(O)c1ccc2c(c1)C(=O)N(c1ccc(S(=O)(=O)c3ccc(N4C(=O)c5ccc(C(=O)O)cc5C4=O)cc3)cc1)C2=O | > 100 |  | > 100 | > 100 | > 100 | > 100 | > 100 | > 100 | > 100 |  |  |  |  |  |  |  |  |  |  | 
COc1ccc(OC)c(Nc2nc3nonc3nc2Nc2cccc(Br)c2)c1 | 2.73 | 3.55 | 17.5 | > 100 |  | > 100 | 29.5 | 1.57 | 19.1 | 8.14 | 0.853 | 0.266 | 0.807 | 0.556 | 2.56 | 0.982 | 1.25 | 0.297 | 0.692 | 
CC(=O)OC1CCC2OOC1O2 (configuration not stated) | > 100 |  | > 100 | > 100 | > 100 | > 100 | > 100 | > 100 | > 100 |  |  |  |  |  |  |  |  |  |  | 
CN(c1ccccc1)c1cc2ccccc2nn1 | > 100 | > 100 | > 100 | > 100 | > 100 | > 100 | > 100 | > 100 | > 100 |  |  |  |  |  |  |  |  |  |  | 
COc1cccc2c1C(=O)c1c(O)c3c(c(O)c1C2=O)C[C@@](O)(/C(CO)=N/NC(=O)CCCCCN1C(=O)C=CC1=O)C[C@@H]3O[C@H]1C[C@H](N)[C@H](O)[C@H](C)O1 | 10.2 | 7.01 | > 52.5 | > 100 | 3.85 | 12.4 | 7.82 |  | 11.4 | 9.64 | 0.8 | 0.27 | 1.69 | 0.825 | 4.04 | 0.648 | 0.734 |  | 0.465 | 0.984
Nc1cccc2c1-c1c(cccc1[N+](=O)[O-])C2=O | > 100 | > 100 | > 100 | > 100 | > 100 | > 100 | > 100 | > 100 | > 100 |  |  |  |  |  |  |  |  |  |  | 
Cc1ccc(S(=O)(=O)OCOS(=O)(=O)c2ccc(C)cc2)cc1 | > 100 |  | > 100 | > 100 | > 100 | > 100 | > 100 | > 100 | > 100 |  |  |  |  |  |  |  |  |  |  | 
CC(=Nc1ccc(N(C)C)cc1)c1ccccc1 | 34.9 |  | 74.7 | > 100 | 20.6 |  | > 100 | 29.7 | > 100 | 65.1 |  |  |  |  |  |  |  |  |  | 
COC(=O)[C@H](Cc1cn(C)cn1)NC(=O)[C@H](CC(=O)OCc1ccccc1)NC(=O)Nc1cc(C(F)(F)F)cc(C(F)(F)F)c1 | 13.8 |  | 15.7 | 34.2 |  | 18.1 | 25.6 | 24.6 | 28.5 | 8.09 | 3.79 |  | 2.8 | 4.15 | 17.2 | 4.51 | 12.4 | 12.2 | 13.8 | 
c1ccc(C2=NOC3C4CCC(C4)C23)cc1 (configuration not stated) | > 100 | > 100 | > 100 | > 100 |  | > 100 | > 100 | > 100 | > 100 |  |  |  |  |  |  |  |  |  |  | 
Cc1ccccc1NC(=O)/C(=N\NC(N)=S)C(C#N)c1ccccc1 (configuration not stated) | > 100 | > 100 | > 100 | > 100 | > 100 | > 100 | > 100 | > 100 | > 100 |  |  |  |  |  |  |  |  |  |  | 
Cn1[nH]cc2ccc3nc4ccccc4c(=O)c3c21 | 92.6 | > 83 | > 100 | 92.8 | 44.4 | > 100 |  | 35.1 | > 100 |  |  |  |  |  |  |  |  |  |  | 
NCCCNc1nc2ccccc2c2c(=O)c3cc(F)ccc3sc12 | 3.48 | 3.33 |  | 3.05 | 2.74 | 3.12 | 3.1 | 3.13 |  |  | 1.69 | 1.31 |  |  | 1.61 | 1.45 | 1.71 | 1.73 |  | 1.42
C=CCn1c2ccccc2c2c3c(c4c5ccccc5n(CC=C)c4c21)C(=O)N(O)C3=O | 9.31 | 25.5 | 50 | 29.6 | 19.6 | 32.4 |  | 4.1 | > 100 | > 100 | 2.01 | 7.13 | 19.6 | 3.89 | 5.29 | 3.72 |  | 1.79 | 4.18 | 3.94
CCC12C=CCN(CCc3c([nH]c4ccccc34)/C=C\1)C2 (configuration not stated) | > 100 |  | > 100 |  |  | > 100 | > 100 | > 100 | > 100 |  |  |  |  |  |  |  |  |  |  | 
